Results reported in patent publication US4450269A, “Mono-5-substituted-3-chloro-4H-1,2,6-thiadiazin-4-one antifungal agents” (FMC Corporation, priority 1980, dated 1984).

What was measured:
[1] = tested on: Pythium ultimum and Rhizoctonia solani; assay: Soil/seed treatment, cucumber damping-off complex; format: in vivo; conditions: 150 ppm suspension, 3.75 to 3.8 mg per pot
Method: Containers having a volume of about 0.25 l. were 2/3 filled with topsoil and 25 cucumber c.v. [Straight Eight` seeds deposited on the soil surface of each pot. A suspension containing 150 ppm of the test chemical was poured over the seeds and into the soil in sufficient quantity to provide 3.75 to 3.8 mg active ingredient per pot.
Fungi used in this test were Pythium ultimum and Rhizoctonia solani. These fungi were each grown on potato dextrose agar for three to six days. The agar plus mycelium was then minced in a blender with water and 10 ml of the resulting slurry of minced mycelium poured over the seeds.
Following inoculation approximately 15 mm of topsoil was spread over the seeds, the container capped and incubated at 4° C. in darkness for three days, then transferred to a greenhouse (27° C.) for 10-14 days, at which time stand counts were made. Captan was used as a standard for comparison. Based on stand counts on Efficacy Index was calculated for each test chemical as follows: [formula]

[2] = tested on: Uromyces phaseoli; conditions: in vivo
[3] = tested on: Erysiphe polygoni; conditions: in vivo
[4] = tested on: Cercospora beticola; conditions: in vivo

## 3-chloro-5-(bromophenoxy)-4H-1,2,6-thiadiazin-4-one [Compound 33]
[1]
  Efficacy Index, seed/soil, cucumber damping-off complex: 0
[2]
  Percent Disease Control, foliar, bean rust: 100%
[3]
  Percent Disease Control, curative, bean powdery mildew: 95%
[4]
  Percent Disease Control, curative, sugar beet leaf spot: 0%
